From PMC11111691, “Cystine-knot peptide inhibitors of HTRA1 bind to a cryptic pocket within the active site region” (Nature Communications, 2024)

Target: T1, HTRA4^PD/PDZ, HTRA4^FL (Homo sapiens, UniProt P83105)
T1 construct: purchased Abcam (FL form); the PD/PDZ form was made in house in E. coli ab134444
T1 sequence (P83105 32-476): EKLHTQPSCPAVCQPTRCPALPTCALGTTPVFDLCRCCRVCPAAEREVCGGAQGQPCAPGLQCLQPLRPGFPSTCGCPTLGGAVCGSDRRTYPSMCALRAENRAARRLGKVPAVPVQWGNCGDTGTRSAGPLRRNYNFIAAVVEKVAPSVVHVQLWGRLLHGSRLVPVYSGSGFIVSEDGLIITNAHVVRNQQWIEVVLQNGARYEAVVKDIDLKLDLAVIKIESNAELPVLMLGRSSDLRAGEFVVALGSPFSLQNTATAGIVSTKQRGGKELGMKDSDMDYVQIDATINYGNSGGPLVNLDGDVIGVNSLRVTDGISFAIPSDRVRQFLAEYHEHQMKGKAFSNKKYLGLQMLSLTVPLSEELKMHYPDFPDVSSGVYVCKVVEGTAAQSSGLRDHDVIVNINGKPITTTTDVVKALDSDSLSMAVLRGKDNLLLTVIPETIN
Assay: H2-OPT selectivity assay, HTRA4
Type: biochemical
Settings: 6 nM HTRA4^FL, 2 µM CKP (0.5 mM 7mer-ABP)
Description: Assays with the fluorescence-quenched synthetic substrate Mca-IRRVSYSFK(Dnp)K (H2-OPT)[38],[60] were carried out essentially as described. CKP stock solutions in DMSO were diluted in TNC buffer (dilution series for IC50 determinations, or final concentration of 2 µM for selectivity assay or as indicated for HTRA1/4 mutants) and incubated with enzymes in 96-well black optical bottom plates for 60 min at 37 °C. For selectivity experiments we used the 7mer-ABP as inhibitor, which was incubated with the proteases for 15 min at 37 °C. A 10 mM stock solution of H2-OPT in DMSO was diluted with water, prewarmed at 37 °C and then added to the CKP-enzyme mixtures. The final concentrations in the reaction mixtures were: 1 nM HTRA1^FL, 3 nM HTRA1^PD/PDZ, 1 nM HTRA1^PD, 1 nM HTRA2^PD/PDZ, 3 nM HTRA3^FL, 60 nM HTRA3^PD/PDZ, 6 nM HTRA4^FL, 1 µM HTRA4^PD/PDZ, 1 nM mouse HTRA1^PD, 25 nM HTRA1^PD-A202Y, 1 µM HTRA4^PD/PDZ-Y200A, 0.5 mM 7mer-ABP, 5 µM H2-OPT, and 0.25% DMSO. The kinetics of substrate cleavage was measured at 37 °C on a SpectraMax M5 microplate reader with excitation of 328 nm and emission of 393 nm. The determined initial rates of cleavage were expressed as percent of control (DMSO control) after subtracting the baseline rates (without enzyme). IC50 values were determined by Sigmoidal 4PL modeling of multiple data points from serial dilutions of CKPs using Prism 9 software (GraphPad). For selectivity assays with HTRA1-4^PD/PDZ constructs, the specific activities of the enzymes and enzyme:CKP inhibitor ratios were as follows: HTRA1^PD/PDZ, 12560 mRFU/min/nM – 1:667; HTRA2^PD/PDZ, 32300 mRFU/min/nM – 1:2000; HTRA3^PD/PDZ, 962 mRFU/min/nM – 1:33; HTRA4^PD/PDZ, 18 mRFU/min/nM – 1:2.

DPMFKLV-phosphonate [7mer-ABP]
Inhibition of HTRA4^FL, H2-OPT (% of control): significantly inhibited
